Laboratory results from PubChem BioAssay (NCI).
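Tested at 5 concentrations; 48 h exposure; 96-well plates; endpoints linearly interpolated, else capped at highest concentration. Abbreviation: GI50, concentration required for 50% inhibition of growth. At the TGI there is no net growth.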

Tests used:
Assay in all cases: NCI tumour cell line growth inhibition, 48 h
MCF7 breast = system: MCF7 breast
SF-268 CNS = system: SF-268 CNS
CCRF-CEM leukemia = system: CCRF-CEM leukemia
NCI-H522 lung = system: NCI-H522 lung
NCI-H226 lung = system: NCI-H226 lung
UACC-62 melanoma = system: UACC-62 melanoma
SF-295 CNS = system: SF-295 CNS
SN12C renal = system: SN12C renal
OVCAR-5 ovarian = system: OVCAR-5 ovarian
A549 NSCLC = system: A549 NSCLC

| Structure (SMILES) | GI50 (MCF7 breast) | TGI (MCF7 breast) | GI50 (SF-268 CNS) | TGI (SF-268 CNS) | GI50 (CCRF-CEM leukemia) | TGI (CCRF-CEM leukemia) | TGI (NCI-H522 lung) | TGI (NCI-H226 lung) | TGI (UACC-62 melanoma) | TGI (SF-295 CNS) | TGI (SN12C renal) | TGI (OVCAR-5 ovarian) | TGI (A549 NSCLC) | GI50 (NCI-H522 lung) | GI50 (NCI-H226 lung) | GI50 (UACC-62 melanoma) | GI50 (SF-295 CNS) | GI50 (SN12C renal) | GI50 (OVCAR-5 ovarian) |
| --- | --- | --- | --- | --- | --- | --- | --- | --- | --- | --- | --- | --- | --- | --- | --- | --- | --- | --- | --- |
| CNC(=O)c1cc(Oc2cccc3nc(NC(=O)Nc4ccc(F)cc4F)ccc23)ccn1 | 1.66 µM | > 50 µM | 1.9 µM | > 50 µM | > 50 µM | > 50 µM | – | – | – | – | – | – | – | – | – | – | – | – | – |
| COc1ccc(/C=C(\C2=NC(=O)CS2)c2nc3ccccc3[nH]2)cc1 | – | – | – | > 100 µM | – | > 100 µM | 49.7 µM | 28.6 µM | > 100 µM | > 100 µM | > 100 µM | > 100 µM | > 100 µM | – | – | – | – | – | – |
| c1ccc(Sc2nc(Sc3ccccc3)nc(Sc3ccccc3)n2)cc1 | – | > 100 µM | – | > 100 µM | – | > 100 µM | > 100 µM | 77.9 µM | > 100 µM | > 100 µM | > 100 µM | > 100 µM | > 100 µM | – | – | – | – | – | – |
| CN1CCN(Cn2nc(-c3cc(F)c(Cl)cc3Cl)oc2=S)CC1 | 30.2 µM | > 100 µM | 34.2 µM | > 100 µM | 33.4 µM | > 100 µM | > 100 µM | > 100 µM | 55.2 µM | > 100 µM | > 100 µM | > 100 µM | – | 90.1 µM | 34.4 µM | 21.2 µM | 42.4 µM | 28.3 µM | > 100 µM |
| COc1cccc2c1C(=O)c1c(O)c3c(c(O)c1C2=O)CC(O)(C(C)=O)CC3O (stereo unspecified) | – | 16.2 µM | – | 31.9 µM | – | 23.2 µM | 3.09 µM | 18.6 µM | 14.4 µM | 19.5 µM | 29.4 µM | 24.1 µM | 23.4 µM | – | – | – | – | – | – |
| CN1C(=O)[C@@H]2[C@@H]3c4ccccc4N[C@@H]3c3[nH]c4ccccc4c3[C@@H]2C1=O | – | > 100 µM | – | 92.6 µM | – | 46.5 µM | – | > 100 µM | 32.4 µM | 47 µM | > 100 µM | 64.2 µM | 65.1 µM | – | – | – | – | – | – |
| Cc1ccc(O)cc1 (tested in a mixture with another compound) | – | > 100 µM | – | > 100 µM | – | > 100 µM | > 100 µM | > 100 µM | > 100 µM | > 100 µM | > 100 µM | > 100 µM | > 100 µM | – | – | – | – | – | – |
| CN(C)CCNC(=O)c1cccc2[nH]c(-c3ccc(Cl)cc3)nc12 | – | 15.8 µM | – | 38.4 µM | – | 35.7 µM | 19.9 µM | 14.4 µM | 17.5 µM | 21.3 µM | 19.4 µM | 26.4 µM | 17.7 µM | – | – | – | – | – | – |
| O=P(Nc1cccc(Cl)c1)(Oc1ccccc1)N(CCCl)CCCl (stereo unspecified) | – | – | – | 31.4 µM | – | > 100 µM | > 100 µM | 29.6 µM | 24.4 µM | 28.1 µM | 29.1 µM | 28.8 µM | 29.2 µM | – | – | – | – | – | – |
| Cc1cc2nc(CC(C(F)(F)F)C(F)(F)F)oc2cc1C | – | 24.1 µM | – | 8.2 µM | – | > 100 µM | 1.13 µM | 4.81 µM | 3.64 µM | 18.6 µM | – | 25.7 µM | 30.1 µM | – | – | – | – | – | – |
| COCC1N=C(c2cc(OC)c(OC)c(OC)c2-c2cc3c(cc2[C@@H](C)O)OCO3)O[C@H]1c1ccccc1 (stereo partly specified) | – | > 100 µM | – | > 100 µM | – | > 100 µM | > 100 µM | > 100 µM | > 100 µM | > 100 µM | > 100 µM | > 100 µM | > 100 µM | – | – | – | – | – | – |
| Cc1ccc(S(=O)(=O)NCCCSCCO)cc1 | – | > 100 µM | – | > 100 µM | – | > 100 µM | > 100 µM | > 100 µM | – | > 100 µM | > 100 µM | – | > 100 µM | – | – | – | – | – | – |
| O=c1[nH]c(-c2ccc(Cl)cc2)cc2ccsc12 | – | > 100 µM | – | > 100 µM | – | – | > 100 µM | > 100 µM | > 100 µM | 23.4 µM | > 100 µM | > 100 µM | > 100 µM | – | – | – | – | – | – |
| CCOC(=O)C1=C(C)N(c2ccc(Cl)cc2)C2(O)C=CC(Nc3ccc(Cl)cc3)=C3C(=O)N(c4ccccc4)C(=O)C312 (stereo unspecified) | – | 9.3 µM | – | 20.1 µM | – | 8.39 µM | 5.25 µM | – | 7.15 µM | 13.8 µM | 13.4 µM | 21.3 µM | > 100 µM | – | – | – | – | – | – |
